4 molecules from patent US20240041976A1, “COMPOSITION AND USE” (priority 2020, published 2024) can be followed below.

Where two headings read alike, the source gives them in different places. No end group written: not given here.

One test concerns MRSA ATCC 33591. Kind of test: microbe, parasite or virus in culture. Format: cell-based, Staphylococcus aureus. Conditions: for MIC: Staphylococcus aureus, 24 h, read-out: MIC, single antimicrobial. The protocol: (§1) Antimicrobial activity was measured using the AAMP assay (Wiegand et al., 2008, Nat. Protoc., Vol. 3(2), p 163-175).
(§2) Synergy testing was done with a microtiter plate checkerboard assay as previously described (Orhan et al., 2005, J. Clin. Microbiol., Vol. 43(1), p 140-143). Briefly, equal amounts of antimicrobial A were applied on microtiter plate 1 in wells A1-H1 and then diluted two-fold to wells 2-12. Similarly, equal amounts of antimicrobial B were applied on microtiter plate 2 in wells A1-A12 and diluted two-fold in wells B-H. Volumes of 50 μl of antimicrobial A from each well of microtiter plate 1 were transferred into microtiter plate 3, except for wells H1-H12. Similarly, the same volumes were transferred from microtiter plate 2 into plate 3, except for wells A1-A8. A 100 μl volume of 25 times diluted ON bacterial culture of MRSA was transferred into each well of plate 3. A 50 μl volume of pure broth was added into each well in lines H1-H12 and A1-A8 which were used to estimate MIC values of pure substances (blank).
(§3) Antimicrobial activity was measured using the AAMP assay as described in Example 2.
(§4) Synergy testing was performed as in Example 2.

The test system of test [1] is Methicillin-Resistant Staphylococcus aureus. Format: in vivo, mice. Conditions: repeat on larger groups. On the procedure: The experiment was performed essentially as set out in Example 2, except that the following regimes as described below, were used.
50-70 μl of cream was applied per wound.
Treatment was daily for 4 days.
The rifampicin/MP1 experiment was repeated on a larger group of mice in each category (8 mice for each of rifampicin, MP1, rifampicin+MP1, 8 mice with APO base cream 30% as used for rifampicin and MP1, 7 mice untreated). Seven mice were also treated with fucidin cream (2% fusidic acid in a cream base) as a positive control.

Another test has as its system MRSA 43484. Kind of test: AAMP assay and checkerboard synergy. Format: cell-based, Staphylococcus aureus. Conditions: for MIC: Staphylococcus aureus, 24 h, read-out: MIC, single antimicrobial. The protocol:
as §1, §2
(§5) Three-component synergy was assessed by mixing the three components (100 μg of PenG, 50 μg of GarKS and 2.5 μg of MP1) into one well of a microtiter plate, compared with activity of individual antimicrobials on the same plate. The fractional inhibition concentration (FIC) which was used to define synergy was calculated as set forth in Example 1.

For a further test, the system named is MRSA ATCC 33591-lux. Description: AAMP assay and checkerboard synergy. To be noted: for MIC: Staphylococcus aureus, 24 h, read-out: MIC, single antimicrobial. Format: cell-based, Staphylococcus aureus. The protocol: as §1, §2, §5
Another test relates to MRSA USA-300. Kind of test: AAMP assay and checkerboard synergy. Format: cell-based, Staphylococcus aureus. To be noted: for MIC of the antimicrobial in comb. with GarKS: MRSA USA-300; for MIC: Staphylococcus aureus, MRSA, 24 h, read-out: MIC, single antimicrobial. On the procedure: as §1, §2, §5
Test [2] concerns three MRSA strains (ATCC33591-lux, USA-300 and MRSA 43484). Description: AAMP assay and checkerboard synergy, summary. It counts as cell-based, Staphylococcus aureus. To be noted: for MIC: Staphylococcus aureus, 24 h. On the procedure: as §2, with “Briefly,” for “Synergy testing was done with a microtiter plate checkerboard assay as previously described (Orhan et al., 2005, J. Clin. Microbiol., Vol. 43(1), p 140-143). Briefly,”, “A 100 μl volume of 25 times diluted ON bacterial culture of MRSA was transferred into each well of plate 3.” left out
Three-component synergy was assessed by mixing the three components (100 μg of PenG, 50 μg of GarKS and 2.5 μg of MP1) into one well of a microtiter plate, compared with activity of individual antimicrobials on the same plate.

A further test has as its system S. aureus LMG3026. Kind of test: AAMP assay (MIC), single components and formulation mixture. It counts as cell-based, Staphylococcus aureus. To be noted: Staphylococcus aureus, LMG3026, 24 h; read-out: MIC, single component. The protocol:
as §1, §5

For a further test, the system named is S. aureus LMG3242. The description is as above. It counts as cell-based, Staphylococcus aureus. On the procedure:
as §1, §5

For the next test, the system named is S. aureus LMG3255. The test is described as above. It counts as cell-based, Staphylococcus aureus. On the procedure: as §1, §5
A further test deals with S. aureus LMG3258. The description is as above. It counts as cell-based, Staphylococcus aureus. To be noted: Staphylococcus aureus, LMG3258, 24 h; read-out: MIC, single component. The protocol: as §1, §5
The subject of the next test is S. aureus LMG3263. The test is described as above. It counts as cell-based, Staphylococcus aureus. The protocol: as §1, §5
Another test deals with S. aureus LMG3264. The description is as above. Format: cell-based, Staphylococcus aureus. On the procedure:
as §1, §5

The test system of another test is S. aureus LMG3265. Described as above. It counts as cell-based, Staphylococcus aureus. Conditions: Staphylococcus aureus, LMG3265, 24 h; read-out: MIC, single component. On the procedure: as §1, §5
The test system of a further test is S. aureus LMG3266. Described as above. It counts as cell-based, Staphylococcus aureus. The protocol:
as §1, §5

For a further test, the system named is S. aureus LMG3271. Described as above. Format: cell-based, Staphylococcus aureus. Conditions: Staphylococcus aureus, LMG3271, 24 h; read-out: MIC, single component. The protocol: as §1, §5
Another test concerns S. aureus LMG3307. The test is described as above. Format: cell-based, Staphylococcus aureus. To be noted: Staphylococcus aureus, LMG3307, 24 h; read-out: MIC, single component. On the procedure: as §1, §5
The test system of the next test is S. aureus LMG3314. Described as above. Format: cell-based, Staphylococcus aureus. Conditions: Staphylococcus aureus, LMG3314, 24 h; read-out: MIC, single component. On the procedure:
as §1, §5

The next test concerns S. aureus LMG3322. The test is described as above. Format: cell-based, Staphylococcus aureus. Conditions: Staphylococcus aureus, LMG3322, 24 h; read-out: MIC, single component. The protocol: as §1, §5
Another test relates to S. aureus LMG3328. The test is described as above. Format: cell-based, Staphylococcus aureus. To be noted: Staphylococcus aureus, LMG3328, 24 h; read-out: MIC, single component. The protocol: as §1, §5
In test [3] the test system is S. pseudintermedius MRSP 45. Description: microbe, parasite or virus in culture. It counts as cell-based, Staphylococcus pseudintermedius. To be noted: Staphylococcus pseudintermedius, read-out: MIC, single component. On the procedure: as §1, §2, §3, §4
A further test concerns E. faecium LMGT 3104. Kind of test: microbe, parasite or virus in culture. Format: cell-based, Enterococcus faecium. The protocol:
as §1, §2, §3, §4

As for `CO[C@H]1/C=C/O[C@@]2(C)Oc3c(C)c(O)c4c(O)c(c(/C=N/N5CCN(C)CC5)c(O)c4c3C2=O)NC(=O)/C(C)=C\C=C\[C@H](C)[C@H](O)[C@@H](C)[C@@H](O)[C@@H](C)[C@H](OC(C)=O)[C@@H]1C` [Rifampicin], in the test on MRSA ATCC 33591, the “MIC of MP1 in comb. with the labelled antimicrobial” value (“MIC of MP1” for short) came out at 0.08 µg/mL, the “MIC of the labelled antimicrobial in comb. with MP1” value (“MIC of the labelled antimicrobial” for short) stood at 1.5 µg/mL and the MIC was > 100 µg/mL. In test [1], the “duration of the antimicrobial effect” value was “less than 48 hours”.

On to `O=C(N[C@H](CO)[C@H](O)c1ccc([N+](=O)[O-])cc1)C(Cl)Cl` [Cam, Chloramphenicol], for which the “MIC of the antimicrobial in comb. with GarKS” value with MRSA 43484 (MRSA 43484) is 64 µg/mL; in the test on MRSA ATCC 33591-lux (MRSA ATCC 33591-lux), 32/32 μg/ml; in the test on MRSA USA-300 it was 64 µg/mL; in test [2] (All three strains), 32 to 64 µg/mL. The MIC in the test with MRSA 43484 (MRSA 43484) is 16 µg/mL; with MRSA ATCC 33591-lux, 125 µg/mL; with MRSA USA-300, 125 µg/mL; in test [2] (read-out: MIC, single antimicrobial, All three strains), 16 to 125 µg/mL; in the test on S. aureus LMG3026 it was 8 µg/mL; with S. aureus LMG3242 (Staphylococcus aureus, LMG3242, 24 h; read-out: MIC, single component) it was 8 µg/mL. Besides, the MIC in the test on S. aureus LMG3255 (Staphylococcus aureus, LMG3255, 24 h; read-out: MIC, single component) amounted to 16 µg/mL; in the test with S. aureus LMG3258, 16 µg/mL; in the test on S. aureus LMG3263 (Staphylococcus aureus, LMG3263, 24 h; read-out: MIC, single component), 32 µg/mL; in the test on S. aureus LMG3264 (Staphylococcus aureus, LMG3264, 24 h; read-out: MIC, single component) it was 16 µg/mL; in the test with S. aureus LMG3265, 32 µg/mL; in the test with S. aureus LMG3266 (Staphylococcus aureus, LMG3266, 24 h; read-out: MIC, single component), 32 µg/mL. For the same molecule, the MIC with S. aureus LMG3271 came to 16 µg/mL; in the test on S. aureus LMG3307, 8 µg/mL; in the test on S. aureus LMG3314, 8 µg/mL; in the test with S. aureus LMG3322, 8 µg/mL; in the test on S. aureus LMG3328 it was 8 µg/mL; with MRSA ATCC 33591, 62 µg/mL. The MIC in test [3] (MRSP45, MRSP 45, 24 h, Table 8) stood at 62 µg/mL. Further, the “synergy with GarKS” value in test [2] (checkerboard assay) is recorded as “no synergy or only additive effects”. The “MIC of MP1” value in the test on MRSA ATCC 33591 was 0.08 µg/mL. In addition, the “MIC of the labelled antimicrobial” value with MRSA ATCC 33591 is 8 µg/mL.

Regarding `NC[C@H]1O[C@H](O[C@H]2[C@H](O)[C@@H](O[C@H]3O[C@H](CO)[C@@H](O)[C@H](N)[C@H]3O)[C@H](N)C[C@@H]2N)[C@H](O)[C@@H](O)[C@@H]1O` [Kan, Kanamycin], the “MIC of the antimicrobial in comb. with GarKS” value in the test on MRSA 43484 (MRSA 43484) and in the test on MRSA USA-300 was 32/32 μg/ml throughout. In addition, the MIC in the test with MRSA 43484 (MRSA) is > 125 µg/mL; in the test with MRSA ATCC 33591-lux (MRSA ATCC 33591-lux), > 125 µg/mL; with MRSA USA-300, > 125 µg/mL; in test [2] (All three strains, read-out: MIC, single antimicrobial) it was > 125 µg/mL; in the test with S. aureus LMG3026, 16 µg/mL; with S. aureus LMG3242 (Staphylococcus aureus, LMG3242, 24 h, read-out: MIC, single component), > 125 µg/mL. In addition, the MIC in the test on S. aureus LMG3255 (Staphylococcus aureus, LMG3255, 24 h, read-out: MIC, single component) was > 125 µg/mL; with S. aureus LMG3258, 125 µg/mL; in the test on S. aureus LMG3263 (Staphylococcus aureus, LMG3263, 24 h, read-out: MIC, single component), > 125 µg/mL; with S. aureus LMG3264 (Staphylococcus aureus, LMG3264, 24 h, read-out: MIC, single component), > 125 µg/mL; in the test with S. aureus LMG3265 it was 64 µg/mL; in the test with S. aureus LMG3266 (Staphylococcus aureus, LMG3266, 24 h, read-out: MIC, single component), > 125 µg/mL. For the same molecule, the MIC in the test with S. aureus LMG3271 is 64 µg/mL; with S. aureus LMG3307, 64 µg/mL; in the test on S. aureus LMG3314, 64 µg/mL; in the test with S. aureus LMG3322 it was 64 µg/mL; with S. aureus LMG3328 it was 32 µg/mL; in test [3] (MRSP45, 24 h) it was > 1250 µg/mL. In addition, the “MIC, single antimicrobial” value in test [2] (All three strains) is >125 µg/mL.

Turning to “MKFKFNPTGTIVKKLTQYEIAWFKNKHGYYPWEIPRC [EntK1]”, in the test with E. faecium LMGT 3104, the “MIC of MP1” value is 0.02 µg/mL; the “MIC of the labelled antimicrobial” value came to 0.4 µg/mL; the “MIC, single antimicrobial” value was >250 µg/mL.
